Assay results reported in patent US20060069084A1, “Methods of inhibiting kinases” (priority 2001, published 2006).

Key:
Type in all cases: biochemical
Details in all cases: Table 6; inhibit 50% of activity at 50 μM
[1] = target: T1, JAK3 (Homo sapiens, UniProt P52333); assay: JAK3 kinase domain capture-based ELISA kinase assay
T1 construct: The kinase domain of humanJAK3 was amplified from U937mRNA; His tag (from pFastBac HTb vector; nickel chelate purification) (N); made in house; host or cells: baculovirus; virus made in Sf9, large-scale expression in High Five insect cells
Procedure: (§1) For screening purposes, compounds were diluted in 96 well plates at a concentration of 50 μM or 20 μM. Plates were warmed at 37° C. for 30 minutes before assay.
The kinase domain of humanJAK3 was amplified from U937mRNA using the polymerase chain reaction with the following primers: […]
JAK3 PCR products were cloned into the pFastBac HTb expression vector (Gibco) via the Xho I and Kpn I sites. The JAK3 plasmid was then transformed into competent DH10Bac cells (Gibco), and the recombinant baculovirus produced prepared for transfection into Sf9 insect cells.
(§2) Baculovirus preparations from each of the JAK family members were infected into five litres of High Five cells (Invitrogen) grown in High Five serum free medium (Invitrogen) to a cell density of approximately 1-2×10^6 cells/ml. Cells are infected with virus at a MOI of 0.8-3.0. Cells were harvested and lysed. JAK kinase domains were purified by affinity chromatography on a Probond (Invitrogen) nickel chelate affinity column.
(§3) The biotinylated substrate biotin-EGPWLEEEEEAYGWMDF-NH2 (SEQ ID NO:9) (final concentration 5 μM) was used as substrate, and tyrosine phosphorylation was quantitated following transfer to an avidin coated ELISA plate using peroxidase-linked anti-phospho-tyrosine antibody PY20.
(§4) Inhibitors were added to the assays fifteen minutes prior to the addition of ATP. Inhibitors were added in aqueous DMSO, with DMSO concentrations never exceeding 1%.

[2] = target: T2, JAK1 (Homo sapiens, UniProt P23458); assay: JAK1 kinase domain capture-based ELISA kinase assay
T2 construct: The kinase domain of humanJAK1 was amplified from U937mRNA; His tag (from pFastBac HTb vector; nickel chelate purification) (N); made in house; host or cells: baculovirus; virus made in Sf9, large-scale expression in High Five insect cells
Procedure: as §1
The kinase domain of humanJAK1 was amplified from U937mRNA using the polymerase chain reaction with the following primers: […]
JAK1 PCR products were cloned into the pFastBac HTb expression vector (Gibco) via the Xho I and Kpn I sites. The JAK1 plasmid was then transformed into competent DH10Bac cells (Gibco), and the recombinant baculovirus produced prepared for transfection into Sf9 insect cells.
as §2, §3, §4

[3] = target: T3, JAK2 (Homo sapiens, UniProt O60674); assay: JAK2 kinase domain capture-based ELISA kinase assay
T3 construct: The kinase domain of humanJAK2 was amplified from U937mRNA; His tag (from pFastBac HTc vector; nickel chelate purification) (N); made in house; host or cells: baculovirus; virus made in Sf9, large-scale expression in High Five insect cells
Procedure: as §1
The kinase domain of humanJAK2 was amplified from U937mRNA using the polymerase chain reaction with the following primers: […]
JAK2 PCR products were cloned into the pFastBac HTc expression vector (Gibco) via the Sal I and Not I sites. The JAK2 plasmid was then transformed into competent DH10Bac cells (Gibco), and the recombinant baculovirus produced prepared for transfection into Sf9 insect cells.
as §2, §3, §4

[4] = target: T4, TYK2 (Homo sapiens, UniProt P29597); assay: TYK2 kinase domain capture-based ELISA kinase assay
T4 construct: The kinase domain of humanTYK2 was amplified from A549 mRNA; His tag (from pBlueBacHis2A vector; nickel chelate purification) (N); made in house; host or cells: baculovirus; virus made in Sf9, large-scale expression in High Five insect cells
T4 sequence (P29597 897-1176 limits assumed): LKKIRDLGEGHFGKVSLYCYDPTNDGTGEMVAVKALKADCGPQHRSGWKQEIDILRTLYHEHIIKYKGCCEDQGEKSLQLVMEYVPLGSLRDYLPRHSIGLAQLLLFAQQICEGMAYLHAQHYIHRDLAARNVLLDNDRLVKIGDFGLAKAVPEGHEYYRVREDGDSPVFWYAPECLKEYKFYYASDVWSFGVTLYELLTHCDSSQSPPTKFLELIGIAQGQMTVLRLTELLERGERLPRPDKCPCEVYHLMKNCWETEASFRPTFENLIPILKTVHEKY
Procedure: as §1
The kinase domain of humanTYK2 was amplified from A549 mRNA using the polymerase chain reaction with the following primers: […]
TYK2 PCR products were cloned into pBlueBacHis2A (Invitrogen) via the EcoRI site. The recombinant TYK2 baculovirus produced was prepared for transfected into Sf9 insect cells.
as §2, §3, §4

T1 sequence (P52333 822-1111 limits assumed): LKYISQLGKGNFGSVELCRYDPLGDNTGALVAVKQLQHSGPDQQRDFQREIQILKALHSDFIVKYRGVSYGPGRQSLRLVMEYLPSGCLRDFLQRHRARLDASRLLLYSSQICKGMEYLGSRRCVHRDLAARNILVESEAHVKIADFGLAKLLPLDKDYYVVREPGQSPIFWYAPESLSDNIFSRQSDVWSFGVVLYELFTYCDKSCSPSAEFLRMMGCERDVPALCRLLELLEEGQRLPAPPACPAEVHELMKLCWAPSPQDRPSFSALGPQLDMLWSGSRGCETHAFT
T3 sequence (O60674 849-1124 limits assumed): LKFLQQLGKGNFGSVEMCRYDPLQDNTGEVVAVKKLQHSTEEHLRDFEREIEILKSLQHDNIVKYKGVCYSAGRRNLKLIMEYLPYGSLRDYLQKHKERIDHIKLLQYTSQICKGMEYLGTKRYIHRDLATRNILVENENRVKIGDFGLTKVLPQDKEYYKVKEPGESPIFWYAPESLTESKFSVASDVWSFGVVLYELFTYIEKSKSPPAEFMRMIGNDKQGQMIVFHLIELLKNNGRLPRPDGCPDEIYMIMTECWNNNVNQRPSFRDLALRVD
T2 sequence (P23458 875-1153 limits assumed): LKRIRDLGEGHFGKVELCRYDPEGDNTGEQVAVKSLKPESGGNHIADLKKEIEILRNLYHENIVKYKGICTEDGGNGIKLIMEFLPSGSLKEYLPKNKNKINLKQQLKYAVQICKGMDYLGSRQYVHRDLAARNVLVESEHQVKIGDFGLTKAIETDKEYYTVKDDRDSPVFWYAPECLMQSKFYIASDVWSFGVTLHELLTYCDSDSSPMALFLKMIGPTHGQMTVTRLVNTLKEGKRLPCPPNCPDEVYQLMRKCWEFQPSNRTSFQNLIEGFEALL

SMILES | IC50 [1] | IC50 [2] | IC50 [3] | IC50 [4]
CN(C)c1ccc(-c2cn3ccnc3c(NC3CC3)n2)cc1 | < 50 µM | > 50 µM | > 50 µM | > 50 µM
Fc1ccccc1-c1cn2ccnc2c(Nc2ccc(N3CCOCC3)cc2)n1 | > 50 µM | < 50 µM | < 50 µM | < 50 µM
Fc1ccc(-c2cn3ccnc3c(Nc3ccc4[nH]ccc4c3)n2)cc1Cl | > 50 µM | < 50 µM | > 50 µM | < 50 µM
COc1ccc(Nc2nc(-c3ccccc3F)cn3ccnc23)cn1 | > 50 µM | < 50 µM | < 50 µM | > 50 µM
c1ccc(Nc2nc(-c3ccco3)cn3ccnc23)cc1 | > 50 µM | > 50 µM | < 50 µM | < 50 µM
Brc1cn2ccnc2c(Nc2ccccc2)n1 | > 50 µM | < 50 µM | < 50 µM | < 50 µM
CCNc1nc(-c2ccc(N(C)C)cc2)cn2ccnc12 | > 50 µM | < 50 µM | > 50 µM | > 50 µM
NCc1cccc(-c2cn3ccnc3c(Nc3ccccc3)n2)c1 | > 50 µM | < 50 µM | < 50 µM | < 50 µM
c1cn2cc(-c3ccc4c(c3)OCO4)nc(Nc3ccc(N4CCOCC4)cc3)c2n1 | > 50 µM | < 50 µM | < 50 µM | < 50 µM
COc1ccccc1-c1cn2ccnc2c(Nc2ccc(N3CCOCC3)cc2)n1 | > 50 µM | < 50 µM | < 50 µM | < 50 µM
CN1CCCN(c2nc(-c3cccc4ccccc34)cn3ccnc23)CC1 | > 50 µM | < 50 µM | > 50 µM | > 50 µM
COc1ccccc1-c1cn2ccnc2c(Nc2ccc(CCO)cc2)n1 | > 50 µM | < 50 µM | < 50 µM | < 50 µM
Cc1ccc(Nc2nc(-c3ccccc3Cl)cn3ccnc23)cc1NS(C)(=O)=O | > 50 µM | < 50 µM | < 50 µM | < 50 µM
CC(=O)Nc1cccc(-c2cn3ccnc3c(Nc3ccc(N4CCOCC4)cc3)n2)c1 | > 50 µM | < 50 µM | < 50 µM | < 50 µM
OCCc1ccc(Nc2nc(-c3ccccc3F)cn3ccnc23)cc1 | < 50 µM | < 50 µM | < 50 µM | < 50 µM
O=C(O)c1cccc(-c2cn3ccnc3c(Nc3ccc4cn[nH]c4c3)n2)c1 | > 50 µM | < 50 µM | < 50 µM | < 50 µM
O=C(O)c1ccc(-c2cn3ccnc3c(Nc3ccc4cn[nH]c4c3)n2)cc1 | > 50 µM | < 50 µM | < 50 µM | < 50 µM
COc1ccc(Nc2nc(-c3ccccc3OC)cn3ccnc23)cn1 | > 50 µM | < 50 µM | < 50 µM | < 50 µM
c1coc(-c2cn3ccnc3c(Nc3ccc4[nH]ccc4c3)n2)c1 | > 50 µM | < 50 µM | < 50 µM | < 50 µM
Oc1cccc(-c2cn3ccnc3c(N3CCOCC3)n2)c1 | > 50 µM | > 50 µM | < 50 µM | > 50 µM
CCCC/C=C/c1cn2ccnc2c(Nc2ccc(OC)nc2)n1 | > 50 µM | > 50 µM | < 50 µM | > 50 µM
COc1ccc(Nc2nc(-c3ccccc3Cl)cn3ccnc23)cn1 | > 50 µM | > 50 µM | < 50 µM | > 50 µM

SMILES | IC50 [1] | IC50 [2] | IC50 [3] | IC50 [4]
CCCC/C=C/c1cn2ccnc2c(NC2CCC(O)CC2)n1 (centres unmarked) | < 50 µM | > 50 µM | > 50 µM | > 50 µM
c1cncc(-c2cn3ccnc3c(NCCc3ccncc3)n2)c1 | < 50 µM | > 50 µM | > 50 µM | > 50 µM
c1cncc(CCNc2nc(-c3ccco3)cn3ccnc23)c1 | < 50 µM | > 50 µM | > 50 µM | > 50 µM
COc1ccc(Nc2nc(-c3c(C)cccc3C)cn3ccnc23)cn1 | < 50 µM | > 50 µM | > 50 µM | > 50 µM
c1ccc(CN2CC[C@@H](Nc3nc(-c4ccc5c(c4)OCO5)cn4ccnc34)C2)cc1 | > 50 µM | > 50 µM | > 50 µM | < 50 µM
Clc1ccccc1-c1cn2ccnc2c(Nc2ccc3[nH]ccc3c2)n1 | > 50 µM | < 50 µM | < 50 µM | < 50 µM
CN(C)CCNC(=O)c1ccc(-c2cn3ccnc3c(Nc3ccc(C(=O)O)cc3)n2)cc1 | < 50 µM | < 50 µM | < 50 µM | < 50 µM
CN(C)C(=O)COc1cccc(Nc2nc(-c3cccc(N)c3)cn3ccnc23)c1 | < 50 µM | < 50 µM | < 50 µM | < 50 µM
CCCC/C=C/c1cn2ccnc2c(Nc2ccc(N(CC)CCO)cc2)n1 | < 50 µM | < 50 µM | < 50 µM | < 50 µM
O=C(NCCO)c1ccc(-c2cn3ccnc3c(Nc3ccccc3)n2)cc1 | > 50 µM | < 50 µM | < 50 µM | < 50 µM
COc1cc(-c2cn3ccnc3c(Nc3ccccc3)n2)cc(OC)c1OC | > 50 µM | < 50 µM | < 50 µM | > 50 µM
FC(F)(F)Oc1cccc(-c2cn3ccnc3c(Nc3ccccc3)n2)c1 | > 50 µM | > 50 µM | < 50 µM | > 50 µM
c1ccc2cc(-c3cn4ccnc4c(Nc4ccc(N5CCOCC5)cc4)n3)ccc2c1 | > 50 µM | < 50 µM | < 50 µM | > 50 µM
CN(C)CCNC(=O)c1cccc(-c2cn3ccnc3c(Nc3ccc(Cl)cc3)n2)c1 | > 50 µM | < 50 µM | < 50 µM | > 50 µM
O=C(O)CCc1ccc(-c2cn3ccnc3c(NCCc3ccncc3)n2)cc1 | < 50 µM | > 50 µM | > 50 µM | > 50 µM
Fc1ccccc1-c1cn2ccnc2c(NCCc2cccnc2)n1 | < 50 µM | < 50 µM | < 50 µM | > 50 µM
CCNc1nc(-c2ccc(O)c(OC)c2)cn2ccnc12 | < 50 µM | < 50 µM | < 50 µM | > 50 µM
O=C(O)CCc1ccc(-c2cn3ccnc3c(NCc3ccco3)n2)cc1 | < 50 µM | > 50 µM | > 50 µM | < 50 µM
CC(=O)Nc1ccc(Nc2nc(-c3ccc4c(c3)OCO4)cn3ccnc23)cc1 | < 50 µM | < 50 µM | < 50 µM | < 50 µM
Cc1ccc(S(=O)(=O)Nc2ccc(Nc3nc(-c4ccc(CCC(=O)O)cc4)cn4ccnc34)cc2)cc1 | > 50 µM | < 50 µM | < 50 µM | < 50 µM
CCCNc1nc(-c2cccc(N)c2)cn2ccnc12 | > 50 µM | < 50 µM | > 50 µM | > 50 µM
c1coc(-c2cn3ccnc3c(Nc3ccc(N4CCOCC4)cc3)n2)c1 | > 50 µM | < 50 µM | < 50 µM | < 50 µM
